Assay results reported in patent US8557864B2, “Agent having neurotrophic factor-like activity” (Nagoya Industrial Science Research Institute, priority 2007, dated 2013).

test system: mice; assay: Voluntary alternation behavior test (Y-maze test) of mice administered with trimethyltin; format: in vivo; details: TMT 2 mg/kg weight intraperitoneally
Description: The voluntary alternation behavior test (Y-maze test) is one kind of a behavior test using a Y-shaped maze constituted with three arms. First, a mouse is placed on the tip of one arm out of the three arms, letting the mouse freely explore in the maze over 8 minutes, and arms where the mouse transferred are recorded in order. Then, the number of times of transferring to each arm (total arm selection number (total arm entries)) and the number of sequentially selecting three different arms (number of alternation behavior (number of spontaneous behavior)) are counted.
Trimethyltin (hereinafter referred to as “TMT”) is an organic metal compound having neurotoxicity, and acute nerve cell death is cased particularly in granular nerve cells of the hippocampus dentate gyrus, which thus affects memory and learning abilities of a mouse.
The voluntary alternation tests (Y-maze tests) were performed on 1) test groups to which the compound 8 was singly administered and 2) test groups to which TMT and the compound 8 were administered. In the test groups to which the compound 8 was singly administered, the compound 8 was dissolved in 0.1% DMSO to adjust a concentration so as to have each of the doses of 100 and 500 μg/kg and intraperitoneally injected to 6 mice in every administration example each in a dose of 0.25 mL. In 0 μg/kg weight administration examples of controls, 0.25 mL of a phosphoric acid buffer containing 0.1% DMSO was intraperitoneally injected in each time. The voluntary alternation tests (Y-maze tests) were performed on each of the administration groups after the elapse of 2 hours from intraperitoneal administration. In the test group in which TMT and the compound 8 were administered, TMT (2 mg/kg weight) was intraperitoneally administered to a mouse, and the compound 8 was intraperitoneally administered in the same manner as the test groups in which the compound 8 was singly administered after 2 days have passed, and the voluntary alternation test (Y-maze test) was performed after the elapse of 2 hours. FIG. 32 show the results. Significance tests were performed in a Turkey's test (*, ##) and a Student's t-test (++). “DAEE” denotes the compound 8.

SMILES | voluntary alternation behavior after TMT treatment
[CH3][Sn+]([CH3])[CH3] [TMT, Trimethyltin, reference compound] | significantly decreased

test system: mice under chronic mild stress; assay: Tail suspension test comparing compound 8 and fluvoxamine after chronic mild stress; format: in vivo; details: Exp. 2 (1 week after stress); compound 8 500 μg/kg, fluvoxamine 1000 μg/kg intraperitoneally once per day
Description: 7-week-old male ddY strain mice fed in one cage for 4 mice were first subjected to forced swimming for 15 minutes in the same manner as stress in Example 2 (behavior test of mice under stress) (1) described in the paragraph [0063] in the specification. Then, stress for 1 week using 3 kinds of cages was regarded as 1 cycle, and the stress was applied for 3 cycles (3 weeks) and chronic mild stress (CMS) was applied. The compound 8 and fluvoxamine were administered to mice immediately after stress in Exp. 1, 1 week after stress in Exp. 2, and 2 weeks after stress in Exp. 3, respectively, and tail suspension tests were carried out on the respective test groups. In each test group, the compound 8 was adjusted in concentration so as to have each of the doses of […] and fluvoxamine was adjusted in concentration so as to have a dose of 1000 μg/kg, by dissolving in 0.1% DMSO, and each dose of the compound 8 and fluvoxamine were intraperitoneally injected to mice once per day from the time immediately after stress. Further, to 7-week-old male ddY strain mice fed in one cage for 4 mice without stress, the compound 8 and fluvoxamine were administered to carry out the tail suspension tests in the same manner as the stressed mice. FIG. 31 show the result. A significance test was performed in a Student's t-test (*). […] “DAEE” denotes the compound 8 and “Flu” denotes fluvoxamine.

SMILES | effect on depressive symptom (immobility time)
COCCCC/C(=N\OCCN)c1ccc(C(F)(F)F)cc1 [fluvoxamine] | an effect could not be recognized

same assay, conditions: Exp. 3 (2 weeks after stress); fluvoxamine 1000 μg/kg intraperitoneally once per day

SMILES | effect on depressive symptom (immobility time)
COCCCC/C(=N\OCCN)c1ccc(C(F)(F)F)cc1 [fluvoxamine] | recognized only in Exp. 3

test system: MAP kinases; assay: Measurement of activation of MAP kinases in cultured nerve cells (western immunoblotting); format: cell-based; details: fetal rat cerebral cortex nerve cells, compound 500 μg/ml, 30 minutes, relative to control
Description: Activation of MAP kinases was measured on respective compounds in Table 1 including the compound obtained in Production Example with western immunoblotting as follows. Nerve cells were dispersed from a cerebral cortex of a 17-day-old fetal rat and the nerve cells were cultured in a Dulbecco's modified eagle medium (DMEM) containing 5%; fetal bovine serum for 1 day. A culture solution was exchanged to a serum-free medium (B27 supplement added Neurobasal, Invitrogen Corporation), and the nerve cells were cultured in a culture petri dish coated with polyornithine at a density of 20,000 to 40,000 cells/cm^2. Three days later, each of the compounds in Table 1 was added thereto, and culture for 30 minutes was continued. Then, cells were recovered on ice with a solution of a Tris-HCL buffer as a base containing a phosphatase inhibitor. The protein concentration of the obtained cell extraction was determined using a BCA Protein Assay Kit (TAKARABIO INC.), a constant amount (3 μg for MAP kinase measurement, 5 μg for phosphorylated MAP kinase measurement) of the protein was electrophoresed with a polyacrylic amide gel. The protein was transcribed to a PVDF membrane from the gel after electrophoresis, and western immunoblotting was carried out using the primary antibodies: an anti-MAP kinase antibody (Cell Signaling Technology, Inc.) and an antiphosphorylated MAP kinase antibody (Cell Signaling Technology, Inc.), respectively. Subsequently, an enzyme activity was subjected to color development by being reacted with the secondary antibody: an alkaline phosphatase labeled anti-rabbit IgG antibody (Promega KK) to measure MAP kinases and phosphorylated MAP kinases. In addition, each compound was dissolved in 0.7% DMSO and adjusted to have a concentration of 500 μg/ml. A control was added with a phosphoric acid buffer containing 0.1% DMSO in the same amount as the compound.
The above obtained concentration measurement of the electrophoresis gel band was digitalized by calculating an intensity with Image J (BioArts International, Inc.). The numerical value of MAP kinases of each compound was divided by the numerical value of the control's MAP kinases, and the numerical value of phosphorylated MAP kinases of each compound was divided by the numerical value of the control's phosphorylated MAP kinases to find a ratio of the MAP kinases of each compound to the control and a ratio of the phosphorylated MAP kinases of the each compound to the control. Then, the obtained ratio of the phosphorylated MAP kinases to the control was divided by the obtained ratio of the MAP kinases to the control to find a ratio of the phosphorylated MAP kinases to the MAP kinases and graphs were formed and shown in FIGS. 1 to 3. Compound 1, compound 6, compound 11, compound 16, compound 21 and compound 36 in Table 1 were used from products made by Wako Pure Chemical Industries, Ltd.

SMILES | ratio of phosphorylated MAP kinases to MAP kinases
CCCCCCCCCC(=O)OC [Compound 2, decanoic acid methyl ester] | high activities
CCCCCCCCCC(=O)OCC [Compound 3, decanoic acid ethyl ester] | high activities
CCCCCCC/C=C/C(=O)O [Compound 6, trans-2-decenoic acid] | high activities
CCCCCCC/C=C/C(=O)OC [Compound 7, trans-2-decenoic acid methyl ester] | twice or more
C=CCCCCCCCC(=O)OC [Compound 12, trans-9-decenoic acid methyl ester] | high activities
C=CCCCCCCCC(=O)OCC [Compound 13, trans-9-decenoic acid ethyl ester] | high activities
C=CCCCCCCCCC(=O)OC [Compound 22, trans-10-undecenoic acid methyl ester] | high activities
C=CCCCCCCCCC(=O)OCC [Compound 23, trans-10-undecenoic acid ethyl ester] | high activities
CCCCCCC/C=C/COC(=O)/C=C/CCCCCCC [Compound 47, trans-2-decenoic acid-trans-2-decenyl ester] | twice or more
CCCCCCC/C=C/C(=O)OC1CCCCC1 [Compound 48, trans-2-decenoic acid cyclohexyl ester] | twice or more
CCCCCCC/C=C/C(=O)OCCCCCCCC [Compound 53, trans-2-decenoic acid octyl ester] | twice or more
CCCCCCC/C=C/C(=O)OC(C)C [Compound 54, trans-2-decenoic acid isopropyl ester] | twice or more
CCOC(=O)/C=C(\C)CCC=C(C)C [Compound 77, geranic acid ethyl ester] | high activities
CCOC(=O)CC(C)CCCC(C)C (stereo not drawn) [Compound 78, 3,7-dimethyloctanoic acid ethyl ester] | high activities

same assay, conditions: fetal rat cerebral cortex nerve cells, compound 500 μg/ml, 30 minutes, relative to control; listed as trans-2-decenic acid methyl ester

SMILES | ratio of phosphorylated MAP kinases to MAP kinases [times]
CCCCCCC/C=C/C(=O)OC [Compound 7, trans-2-decenoic acid methyl ester] | 6
